Series [1] has as its system Raji leukemia cells. Briefly: Cytotoxicity / proliferation at varying concentrations vs vehicle control. The series is classed as cell-based. How it is done: (§1) In separate experiments, the bifunctional Metnase inhibitor, 4h-new3 (see FIGS. 4 and 43) and the monofunctional Metnase inhibitor 4h (FIG. 1 and FIG. 43), were tested at varying concentrations to determine cytotoxic activity in Raji leukemia eels and MCI-H929 myeloma cells. The compounds were tested against vehicle control at varying concentrations in the above-described cancer cell lines.

Series [2] concerns NCI-H929 myeloma cells. Described as above. The series is classed as cell-based. How it is done:
as §1

The subject of series [3] is KG-1 leukemia cells. Kind of series: KG-1 cell survival and proliferation (trypan blue counts), alone or with VP-16. Particulars: KG-1 cells. The class given is cell-based, human. The text has this:
KG-1 cells are a human acute myeloid leukemia cell line established from a patient with acute myelogenous leukemia that had evolved from an erythroleukemia. Cytotoxicity of etoposide, a semisynthetic derivative of podophyllotoxin that also is called Vepesid (Bristol; code designation VP-16-213, abbreviated VP-16), is mediated by its interaction with DNA topoisomerase II (Topo II), an ATP-dependent nuclear enzyme that regulates DNA topology by transiently breaking and rejoining double-stranded DNA to allow DNA strand passage. Under normal conditions, the formation of a DNA strand break by Topo II is followed by precise realignment and resealing of the broken ends.
The human myeloid cell line KG-1 was grown in RPMI1640 with 10% FBS. The small cell lung cancer cell line CRL5898 was grown in HITES medium (Dulbecco's medium:Ham's F12, 50:50 mix, Insulin 0.005 mg/ml Transferrin 0.01 mg/ml Sodium selenite 30 nM Hydrocortisone 10 nM beta-estradiol 10 nM HEPES 10 mM L-glutamine 2 mM (in addition to that in the base medium)). Both cell lines were seeded at 10,000 cells/ml in the appropriate medium in 6 well plates. The Chem Div compounds were resuspended as 5 mM stock solutions in DMSO. […] Cells were plated and treated in triplicate and counted daily for 4 days in trypan blue to assess survival and proliferation.

For series [4], the system named is A549 lung cancer cells. Kind of series: Colony formation assay, alone or in combination with cisplatin.
The mark [5] stands for this setting: A549, compound constantly present, cisplatin present for a shorter period.
The mark [6] stands for this setting: A549, compound present for 24 hours at the beginning then removed.

“Also recorded” adds a separate entry of the source.

For `CC(C)n1cc(C(=O)O)c(=O)c2ccc(C(=O)c3ccc(CN(CCCl)CCCl)cc3)cc21` [4H_new3], the “level at which proliferation is decreased” value in series [1] and in series [2] was “below 1 μM” in each case. Further, the “decrease of cancer cell proliferation compared with monofunctional inhibitor 4h” value in series [1] (varying concentrations) and in series [2] (varying concentrations) was “significantly more effective at decreasing cancer cell proliferation” throughout.

`CC(C)n1cc(C(=O)O)c(=O)c2ccccc21` [5483-0023]: in series [3] (compound alone), the “cytotoxic activity / proliferation, compound on its own” value is recorded as “has cytotoxic activity on its own; also recorded: Decreases Proliferation of KG-1 Cells on its Own”. Moreover, the “potentiation of cytotoxic activity of VP-16” value in series [3] (in combination with VP-16) is “increases the cytotoxic activity of the anti-cancer drug VP-16; also recorded: Potentiates VP-16”.

Regarding `Cn1c(CCCC(=O)N2CCN(c3cc4c(cc3F)c(=O)c(C(=O)O)cn4C3CC3)CC2)nc2cc(N(CCCl)CCCl)ccc21` [WW-01], in series [4] (setting [5]), the “cytotoxicity of compound compared with cisplatin” value was “significantly greater activity than cisplatin” and the “effect against colony survival, in combination with cisplatin” value is reported as “especially active in combination with cisplatin at higher concentrations”.

`O=C(O)c1cn(C2CC2)c2cc(N3CCN(C(=O)CCCc4ccc(N(CCCl)CCCl)cc4)CC3)c(F)cc2c1=O` [WW-10]: the “cytotoxicity of compound compared with cisplatin” value in series [4] (A549, compound present 24 hours, cisplatin at higher concentration, shorter period) is “greater colony forming cell cytotoxicity than did cisplatin present at a higher concentration”. Besides, in series [4] (setting [6]), the “effect against colony survival, compound alone” value was “significant dose dependent effect against colony survival” and the “effect against colony survival, in combination with cisplatin” value was “especially active in combination with cisplatin at higher concentrations; also recorded: significant dose dependent effect against colony survival”.
